Data as given in patent EP4603105A1, “PHARMACEUTICAL COMPOSITION CONTAINING CYCLIC COMPOUND HAVING SELECTIVE KRAS INHIBITORY EFFECT AGAINST HRAS AND NRAS” (CHUGAI SEIYAKU KABUSHIKI KAISHA, priority 2022, dated 2024).
Where a SMILES comes first, the peptide text is derived from it. Bridges are numbered along the chain shown (N, C = ends). [ ]: non-standard residue; d: D form. The star is where a group is joined. hPhe(3-Cl-4-CF3) = N[C@@H](CCc1ccc(C(F)(F)F)c(Cl)c1)C(=O)O; NPrPhe(4-CF3) = CCCN[C@@H](Cc1ccc(C(F)(F)F)cc1)C(=O)O; NMePhe(4-Me) = CN[C@@H](Cc1ccc(C)cc1)C(=O)O; NMeGly(cPent) = CN[C@H](C(=O)O)C1CCCC1; Pro(4,4-F2) = O=C(O)[C@@H]1CC(F)(F)CN1; Gly(cPent) = N[C@H](C(=O)O)C1CCCC1; NMeF = CN[C@@H](Cc1ccccc1)C(=O)O; NMeD = CN[C@@H](CC(=O)O)C(=O)O; NMeL = CN[C@@H](CC(C)C)C(=O)O; Morpholide = C1CN(*)CCO1; NMeA = CN[C@@H](C)C(=O)O; Ac5c = NC1(C(=O)O)CCCC1; Aze = O=C(O)[C@@H]1CCN1; Ac4c = NC1(C(=O)O)CCC1; NEtG = CCNCC(=O)O; Sar = CNCC(=O)O

Key:
[1] = target: HRAS wild-type protein (Homo sapiens, UniProt P01112); test: Binding to HRAS by surface plasmon resonance (SPR), KD and KD ratio to KRAS
Sequence of HRAS wild-type protein (P01112 whole entry): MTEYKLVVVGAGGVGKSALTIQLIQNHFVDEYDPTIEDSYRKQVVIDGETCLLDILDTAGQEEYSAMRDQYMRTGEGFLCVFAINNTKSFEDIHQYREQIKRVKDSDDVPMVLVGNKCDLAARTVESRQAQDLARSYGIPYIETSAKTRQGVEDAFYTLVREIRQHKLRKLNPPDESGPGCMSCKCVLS
Procedure, shortened: (§1)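 Each cycle, GDP-bound biotin-Avi RAS was captured (~100–300 RU), compound concentrations were injected low to high for 75 s each at 100 µL/min, then the chip was regenerated. Buffer: HBS pH 7.4, 10 mM MgCl2, 10 µM GDP, 1 mM DTT, 4% DMSO; 30°C. KD from a 1:1 binding model.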

[2] = system: human lung cancer strain NCI-H441; assay type: cell-based
Procedure, shortened: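 Signal came from […] measured per well once the reagent was added. Beforehand, cells were cultured at 37°C and 5% carbon dioxide on a compound series serially diluted in dimethyl sulfoxide.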

[3] = target: GDP-bound NRAS wild-type protein (Homo sapiens, UniProt P01111); test: Binding to NRAS by surface plasmon resonance (SPR), KD and KD ratio to KRAS
Sequence of GDP-bound NRAS wild-type protein (P01111 whole entry): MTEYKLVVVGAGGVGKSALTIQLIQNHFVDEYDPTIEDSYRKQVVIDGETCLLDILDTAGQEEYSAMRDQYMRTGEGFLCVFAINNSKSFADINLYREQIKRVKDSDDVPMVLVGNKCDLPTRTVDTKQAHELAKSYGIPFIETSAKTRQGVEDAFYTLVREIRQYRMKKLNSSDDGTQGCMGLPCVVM
Procedure, shortened: as §1

[4] = ratio of KD for HRAS wild-type protein to KD for KRAS
[5] = ratio of KD for GDP-bound NRAS wild-type protein to KD for KRAS
[6] = ratio of the KD value with respect to HRAS wild-type protein to the KD value with respect to KRAS
[7] = ratio of the KD value with respect to GDP-bound NRAS wild-type protein to the KD value with respect to KRAS

Structure (SMILES)	IC50 [2]	HRAS /KRAS [1, 4]	NRAS /KRAS [3, 5]	HRAS /KRAS [1, 6]	NRAS /KRAS [3, 7]	HRAS /KRAS ([1]; ratio of KD value for HRAS wild-type protein to KD value for KRAS (SPR))	NRAS /KRAS ([3]; ratio of KD value for GDP-bound NRAS wild-type protein to KD value for KRAS (SPR))
CCC[C@H]1C(=O)N[C@@H]([C@@H](C)CC)C(=O)N2CCC[C@H]2C(=O)N(C)[C@H]2C/C=C\CCN(C2=O)[C@@H](Cc2ccc(C)cc2)C(=O)N(C)CC(=O)N[C@@H](CCc2ccc(C(F)(F)F)c(OC)c2)C(=O)N2C[C@H](OCC)C[C@H]2C(=O)N(C)C2(CCC2)C(=O)N(C)[C@@H](C2CCCC2)C(=O)N(C)[C@H](C(=O)N2CCCCC2)CC(=O)N1C [PP3100]	15 nM	B (a compound having 3 or more and less than 10 is denoted as B)	A (a compound having 10 or more and less than 20 is denoted as A)				
CC[C@H](C)[C@@H]1NC(=O)[C@H](CC(C)C)N(C)C(=O)C[C@@H](C(=O)N2CCOCC2)N(C)C(=O)[C@H](C2CCCC2)N(C)C(=O)C2(CCCC2)NC(=O)[C@@H]2CCCN2C(=O)[C@H](CCc2ccc(C(F)(F)F)c(Cl)c2)NC(=O)CN(C)C(=O)[C@H](Cc2ccccc2)N(C)C(=O)[C@@H]2CCN2C(=O)[C@H](C)N(C)C1=O [PP0011] ([NMeL]I[NMeA][Aze][NMeF][Sar][hPhe(3-Cl-4-CF3)]P[Ac5c][NMeGly(cPent)][NMeD]-Morpholide; lactam N-11)	5.8 nM	C (A compound having a KD ratio of 0.1 or more and less than 3 is denoted as C)	C (A compound having a KD ratio of 0.1 or more and less than 3 is denoted as C)				
CCCN1C(=O)CN(C)C(=O)CN(CC)C(=O)[C@H]([C@@H](C)CC)NC(=O)[C@H](CC(C)C)N(C)C(=O)C[C@@H](C(=O)N2CCOCC2)N(C)C(=O)[C@H](C2CCCC2)N(C)C(=O)C2(CCCC2)NC(=O)CN(C)C(=O)[C@H](CCc2ccc(C(F)(F)F)c(Cl)c2)NC(=O)CN(C)C(=O)[C@@H]1Cc1ccc(C(F)(F)F)cc1 [PP0300] ([NMeL]I[NEtG][Sar][NPrPhe(4-CF3)][Sar][hPhe(3-Cl-4-CF3)][Sar][Ac5c][NMeGly(cPent)][NMeD]-Morpholide; lactam N-11)	73.9 nM	C (A compound having a KD ratio of 0.1 or more and less than 3 is denoted as C)	B (a compound having 3 or more and less than 10 is denoted as B)				
CC[C@H](C)[C@@H]1NC(=O)[C@H](CC(C)C)N(C)C(=O)C[C@@H](C(=O)N2CCOCC2)N(C)C(=O)[C@H](C2CCCC2)N(C)C(=O)C2(CCCC2)NC(=O)[C@@H]2CCCN2C(=O)[C@H](CCc2ccc(C(F)(F)F)c(Cl)c2)NC(=O)CN(C)C(=O)[C@H](Cc2ccc(C)cc2)N(C)C(=O)CN(CC)C(=O)CN(C)C1=O [PP0019] ([NMeL]I[Sar][NEtG][NMePhe(4-Me)][Sar][hPhe(3-Cl-4-CF3)]P[Ac5c][NMeGly(cPent)][NMeD]-Morpholide; lactam N-11)	6.7 nM	C (A compound having a KD ratio of 0.1 or more and less than 3 is denoted as C)	C (A compound having a KD ratio of 0.1 or more and less than 3 is denoted as C)				
CCCN1C(=O)CN(C)C(=O)CN(C)C(=O)[C@H]([C@@H](C)CC)NC(=O)[C@H](CC(C)C)N(C)C(=O)C[C@@H](C(=O)N(C)C)N(C)C(=O)[C@H](C2CCCC2)N(C)C(=O)C2(CCC2)NC(=O)[C@@H]2CC(F)(F)CN2C(=O)[C@H](CCc2ccc(C(F)(F)F)c(Cl)c2)NC(=O)CN(C)C(=O)[C@@H]1Cc1ccc(C(F)(F)F)cc1 [PP0414] ([NMeL]I[Sar][Sar][NPrPhe(4-CF3)][Sar][hPhe(3-Cl-4-CF3)][Pro(4,4-F2)][Ac4c][NMeGly(cPent)][NMeD]-NMe2; lactam N-11)	1.9 nM			C (A compound having a KD ratio of 0.1 or more and less than 3 is denoted as C)	B (a compound having 3 or more and less than 10 is denoted as B)		
CCO[C@@H]1C[C@H]2C(=O)NC3(CC=CC3)C(=O)N(C)[C@@H](C3CCCC3)C(=O)N(C)[C@H](C(=O)N3CCOCC3)CC(=O)N(C)[C@@H](CC(C)C)C(=O)N[C@@H]([C@@H](C)CC)C(=O)N(C)CC(=O)N(C)[C@H]3CCCCCN(C3=O)[C@@H](Cc3ccc(C(F)(F)F)cc3)C(=O)N(C)CC(=O)N[C@@H](CCc3cc(F)c(C(F)(F)F)c(F)c3)C(=O)N2C1 [PP0727]	85.2 nM			B (a compound having 3 or more and less than 10 is denoted as B)	B (a compound having 3 or more and less than 10 is denoted as B)		
CCCN1C(=O)[C@@H]2CCN2C(=O)[C@H](C)N(C)C(=O)[C@H](C2CCCC2)NC(=O)[C@H](CC(C)C)N(C)C(=O)C[C@@H](C(=O)N2CCOCC2)N(C)C(=O)[C@H](C2CCCC2)N(C)C(=O)C2(CCCC2)NC(=O)[C@@H]2CCCN2C(=O)[C@H](CCc2ccc(C(F)(F)F)c(Cl)c2)NC(=O)CN(C)C(=O)[C@@H]1Cc1ccc(C(F)(F)F)cc1 [PP0272] ([NMeL][Gly(cPent)][NMeA][Aze][NPrPhe(4-CF3)][Sar][hPhe(3-Cl-4-CF3)]P[Ac5c][NMeGly(cPent)][NMeD]-Morpholide; lactam N-11)	3.7 nM	B (a compound having 3 or more and less than 10 is denoted as B)	C (A compound having a KD ratio of 0.1 or more and less than 3 is denoted as C)				

Now from value to compound, other results behind:

IC50 [2]	Structure (SMILES)	HRAS /KRAS [1, 4]	NRAS /KRAS [3, 5]	HRAS /KRAS [1, 6]	NRAS /KRAS [3, 7]	HRAS /KRAS ([1]; ratio of KD value for HRAS wild-type protein to KD value for KRAS (SPR))	NRAS /KRAS ([3]; ratio of KD value for GDP-bound NRAS wild-type protein to KD value for KRAS (SPR))
31.2 nM	CCC[C@H]1C(=O)N[C@@H]([C@@H](C)CC)C(=O)N(C)CC(=O)N(C)[C@H]2C/C=C\CCN(C2=O)[C@@H](Cc2ccc(C)cc2)C(=O)N(C)CC(=O)N[C@@H](CCc2cc(F)c(C(F)(F)F)c(F)c2)C(=O)N2CC3(CC3)C[C@H]2C(=O)NC2(CC(C)(C)C2)C(=O)N(C)[C@@H](CC(F)(F)F)C(=O)N(C)[C@H](C(=O)N(C)C)CC(=O)N1C [PP3003]	A (a compound having 10 or more and less than 20 is denoted as A)	AA (a compound having 20 or more is denoted as AA)				
7.8 nM	CCO[C@@H]1C[C@H]2C(=O)NC3(CCCC3)C(=O)N(C)[C@@H](C3CCCC3)C(=O)N(C)[C@H](C(=O)N(C)C)CC(=O)N(C)[C@@H](CC(C)C)C(=O)N[C@@H]([C@@H](C)CC)C(=O)N(C)CC(=O)N(C)[C@H]3C/C=C\CCN(C3=O)[C@@H](Cc3ccc(C)cc3)C(=O)N(C)CC(=O)N[C@@H](CCc3ccc(C(F)(F)F)c(Cl)c3)C(=O)N2C1 [PP2195]			A (a compound having 10 or more and less than 20 is denoted as A)	A (a compound having 10 or more and less than 20 is denoted as A)		
1.9 nM	CCC[C@H]1C(=O)N[C@@H]([C@@H](C)CC)C(=O)N(C)CC(=O)N(C)[C@H]2C/C=C\CCN(C2=O)[C@@H](Cc2ccc(C(F)(F)F)cc2)C(=O)N(C)CC(=O)N[C@@H](CCc2cc(F)c(C(F)(F)F)c(F)c2)C(=O)N2C[C@H](OCC)C[C@H]2C(=O)N(C)C2(CCC2)C(=O)N(C)[C@@H](C2CCCC2)C(=O)N(C)[C@H](C(=O)N2CCCC2)CC(=O)N1C [PP3120]	A (a compound having 10 or more and less than 20 is denoted as A)	AA (a compound having 20 or more is denoted as AA)				
8.4 nM	C=CCN1CC(=O)N(C)[C@H]2C/C=C\CCN(C2=O)[C@@H](Cc2ccc(C)cc2)C(=O)N(C)CC(=O)N[C@@H](CCc2ccc(C(F)(F)F)c(OC)c2)C(=O)N2C[C@H](OCC)C[C@H]2C(=O)NC2(CC(C)(C)C2)C(=O)N(C)[C@@H](C2CCCC2)C(=O)N(C)[C@H](C(=O)N(C)C)CC(=O)N(C)[C@@H](CCC)C(=O)N[C@@H]([C@@H](C)CC)C1=O [PP2098]			A (a compound having 10 or more and less than 20 is denoted as A)	A (a compound having 10 or more and less than 20 is denoted as A)		
10.3 nM	CCCN(C)C(=O)[C@@H]1CC(=O)N(C)[C@@H](CC)C(=O)N[C@@H]([C@@H](C)CC)C(=O)N(C)CC(=O)N(C)[C@H]2C/C=C\CCN(C2=O)[C@@H](Cc2ccc(C(F)(F)F)cc2)C(=O)N(C)CC(=O)N[C@@H](CCc2cc(F)c(C(F)(F)F)c(F)c2)C(=O)N2C[C@H](OCC3CC3)C[C@H]2C(=O)NC2(CCC2)C(=O)N(C)[C@@H](C2CCCC2)C(=O)N1C [PP2913]	A (a compound having 10 or more and less than 20 is denoted as A)	A (a compound having 10 or more and less than 20 is denoted as A)				
31.4 nM	CCO[C@@H]1C[C@H]2C(=O)NC3(CC(C)(C)C3)C(=O)N(C)[C@@H](C(CC)CC)C(=O)N(C)[C@H](C(=O)N3CCCC3)CC(=O)N(C)[C@@H](C)C(=O)N[C@@H]([C@@H](C)CC)C(=O)N(C)CC(=O)N(C)[C@H]3C/C=C\CCN(C3=O)[C@@H](Cc3ccc(C)cc3)C(=O)N(C)CC(=O)N[C@@H](CCc3ccc(Cl)c(Cl)c3)C(=O)N2C1 [PP2187]			A (a compound having 10 or more and less than 20 is denoted as A)	AA (a compound having 20 or more is denoted as AA)		
4.5 nM	CC[C@H](C)[C@@H]1NC(=O)[C@@H]2CCCCCCc3ccc(cc3)C[C@@H](C(=O)N(C)CC(=O)N[C@@H](CCc3ccc(C(F)(F)F)c(OC)c3)C(=O)N3C[C@H](OC4CCC4)C[C@H]3C(=O)NC3(CC(C)(C)C3)C(=O)N(C)[C@@H](C3CCCC3)C(=O)N(C)[C@H](C(=O)N(C)C)CC(=O)N2C)N2CC/C=C\C[C@@H](C2=O)N(C)C(=O)CN(C)C1=O [PP3068]	B (a compound having 3 or more and less than 10 is denoted as B)	A (a compound having 10 or more and less than 20 is denoted as A)				
9.9 nM	CC[C@H](C)[C@@H]1NC(=O)[C@H](CC)N(C)C(=O)C[C@@H](C(=O)N(C)CC)N(C)C(=O)[C@H](C2CCCC2)N(C)C(=O)C2(CC(C)(C)C2)NC(=O)[C@@H]2C[C@H](C)CN2C(=O)[C@H](CCc2ccc(C(F)(F)F)c(Cl)c2)NC(=O)CN(C)C(=O)[C@H](Cc2ccc(C)cc2)N2CC/C=C\C[C@@H](C2=O)N(C)C(=O)CN(C)C1=O [PP1874]					A (a compound having 10 or more and less than 20 is denoted as A)	A (a compound having 10 or more and less than 20 is denoted as A)
